# Residues, ends and D or L forms follow the SMILES beside them.
# Test system: human peripheral mononuclear blood cells (PBMC)
# Test: Cytotoxic test on human blood mononuclear cells (24 h, colorimetric)
# Conditions: at 40 μg/ml, FIG. 5
# Experimental: For evaluation of toxicity of the compound of formula I-A, human peripheral mononuclear blood cells (PBMC) were chosen. This fraction consists of approximately 80% lymphocytes and 20% monocytes. As a reference compound, cyclolinopeptide (CLA) was selected since the compound of formula I-A shares a part of the sequence of CLA.
# After centrifugation at 1200×g for 20 min, the mononuclear cells from the interphase were harvested and washed 3 times with PBS. The cells were re-suspended in a standard culture medium consisting of RPMI-1640 medium, L-glutamine, sodium pyruvate, 2-mercaptoethanol, 100 μg/ml each of streptomycin and penicillin, and 10% fetal calf serum. The cells were distributed to in 96-well flat-bottom culture plates at density of 2×10^5/100 μl. The compounds (formula I-A and CLA) were initially dissolved in DMSO (5 mg/500 μl) and subsequently in the culture medium. DMSO, appropriately diluted with the culture medium, was used as a control. After 24 h incubation in a cell culture incubator, cell viability was determined by a colorimetric method (Hansen et al., J Immunol Methods, 1989, 119, 203-210).
structure (smiles),measurement,value
"CC[C@H](C)[C@@H]1NC(=O)[C@H](CC(C)C)NC(=O)[C@H](Cc2ccccc2)NC(=O)[C@H](Cc2ccccc2)NC(=O)[C@@H]2CCCN2C(=O)[C@@H]2CCCN2C(=O)[C@H](C(C)C)NC(=O)[C@H](CC(C)C)NC(=O)[C@H]([C@@H](C)CC)NC1=O [CLA, Cyclolinopeptide A] (cyclo(FFLIILVPP))",cytotoxic effect on PBMC,statistically significant cytotoxic effect

# From patent US10238713B2, “Cyclic tetrapeptides and therapeutic applications thereof” (LODZ UNIVERSITY OF TECHNOLOGY, priority 2010, dated 2019)
